In article PMC9007951, “Systematically evaluating DOTATATE and FDG as PET immuno-imaging tracers of cardiovascular inflammation” (Scientific Reports, 2022):
Read-outs that look alike come from different tables or passages of the source.

Columns and labels:
[1] = test system: Apoe^−/− atherosclerotic mice; assay: In vivo PET/CT of vascular inflammation in atherosclerotic mice; conditions: tracer circulated 60 min, median, N = 4
Procedure: (§1) Animals were housed under a constant room temperature at 25 ± 2 °C and 50 ± 5% humidity with a 12-h daylight period and 12-h darkness period, with free access to water. For the mouse atherosclerosis model, 8-weeks old female Apoe^−/− mice (N = 51) were purchased from Jackson Laboratories (Bar Harbor, ME) and, after a 48 h acclimatization period, were fed a Western Diet (42% Kcal from fat TD88137, Envigo, Huntingdon, UK) for 12 weeks. 16–20 weeks old female C57Bl/6 controls (N = 67) were kept on regular chow diet. The myocardial infarction group consisted 16–20 weeks old female C57Bl/6 mice (N = 18) purchased from Jackson Laboratories and subjected to ligation of the left anterior descending artery, as previously described.
(§2) For the PET/CT experiments, mice were fasted for 12 h before radiotracer injection and anesthetized with xylazine (10 mg/kg) and ketamine (100 mg/kg) through intraperitoneal injection prior to radiotracer administration. Subsequently they were injected via the lateral tail vein with approximately 22.2 MBq of [^18F]F-FDG or 5.55 MBq of [^64Cu]Cu-DOTATATE. Tracers were allowed to circulate for 60 min. Immediately before imaging, mice were placed under 1% isoflurane (BaxterHealthcare, Deerfield, IL), and subsequently imaged on a high resolution (700 µm) Mediso nanoScan PET/CT scanner (Mediso, Budapest, Hungary). CT scan was acquired at 50 kVp and 300 ms exposure per projection. eXIA160 (Binitio, Ontario, Canada) was used as a contrast agent to improve imaging of the vasculature by intravenous administration of 100 μl per mouse 5 min prior to CT acquisition. PET acquisition time was 40 min. Reconstruction was performed using TeraTomo 3D reconstruction engine, for 8 iterations and 6 subsets per iteration for both tracers. The voxel size was isotropic at 0.3 mm. Immediately after the PET/CT scan, animals were euthanized for ex vivo assays.
(§3) Using OsiriX v5.6 software (OsiriX Foundation, Geneva, Switzerland), regions of interest (ROIs) were drawn to determine organ radioactivity concentration. In mice, for healthy and infarcted myocardium, ROIs were traced manually in the apex of the heart in the axial view. For remote myocardium, analysis was performed in myocardium 180° from the infarcted zone. In the mice aorta, sequential ROIs were drawn in the ascending aorta based on consecutive tomographic (CT) slices beginning from the root up to the brachiocephalic branch, merging point with the aortic arch. Voxel counts were converted to maximum standardized uptake values (SUVmax). In rabbits, PET images were fused with time-of-flight bright blood MRI angiography and ROIs were manually drawn on the infrarenal abdominal aorta in TOF images. The slice-by-slice maximum standard uptake values (SUVmax) were averaged across the whole aorta. […]

[2] = Ex vivo gamma counting of whole aorta after PET/CT; assay type: in vivo, mice; conditions: female, mouse, iv, 5.55 MBq, total radioactivity, median, N = 4
Procedure: S1A) to evaluate the tracer’s biodistribution. After euthanasia, an insulin syringe was used to collect blood samples from the right ventricle. Blood samples were used for the establishment of pharmacokinetics profile. Mice were then perfused with 20 mL of phosphate-buffered saline (PBS) and tissues of interest (heart, aorta, bone marrow, spleen, liver, stomach, bladder, kidneys, intestines, lungs, adrenal gland, muscles and pancreas) were harvested. Tissues were blotted for gamma counting on a Wizard2 2480 automatic gamma counter (Perkin Elmer, Waltham, MA). Values were corrected for decay and normalized to tissue weight to express radioactivity concentration as percentage injected dose per gram (%ID/g). […] To investigate the tracer’s distribution within different blood compartments, after gamma counting, 100 μL of blood were spun down at 2000 g for 15 min at 4 °C. Plasma (supernatant) and cells (pellet) were gamma counted and expressed as percentage of total activity. The remainder of the blood was separated using Lymphoprep density gradient medium (Nycomed Pharma, Zurich, Switzerland) following manufacturer’s instructions. Percentage of activity in mononuclear and polynuclear cells was calculated. […]

[3] = In vivo PET/CT of vascular inflammation in atherosclerotic mice; conditions: female, mouse, ascending aorta, iv, 5.55 MBq, total radioactivity, tracer circulated 60 min, median, N = 4, read-out: SUVmax ascending aorta
Procedure: as §1, §2, §3

[4] = Blood half-life of [^64Cu]Cu-DOTATATE, gamma counting of blood, two-phase decay fit; assay type: in vivo, mice; conditions: for %fast: two-phase decay fit of blood radioactivity over 120 min; for %slow / Weighed t1/2 (weighted blood half-life) / t1/2 fast / t1/2 slow: two-phase decay fit
Procedure: Wild-type and atherosclerotic animals were injected with approximately 1.85 MBq of [^64Cu]Cu-DOTATATE and euthanized at either 1, 5, 15, 30, 60 or 120 min after injection (Supplementary Fig. S1A) to evaluate the tracer’s biodistribution. After euthanasia, an insulin syringe was used to collect blood samples from the right ventricle. Blood samples were used for the establishment of pharmacokinetics profile. Mice were then perfused with 20 mL of phosphate-buffered saline (PBS) and tissues of interest (heart, aorta, bone marrow, spleen, liver, stomach, bladder, kidneys, intestines, lungs, adrenal gland, muscles and pancreas) were harvested. Tissues were blotted for gamma counting on a Wizard2 2480 automatic gamma counter (Perkin Elmer, Waltham, MA). Values were corrected for decay and normalized to tissue weight to express radioactivity concentration as percentage injected dose per gram (%ID/g). […] To investigate the tracer’s distribution within different blood compartments, after gamma counting, 100 μL of blood were spun down at 2000 g for 15 min at 4 °C. Plasma (supernatant) and cells (pellet) were gamma counted and expressed as percentage of total activity. The remainder of the blood was separated using Lymphoprep density gradient medium (Nycomed Pharma, Zurich, Switzerland) following manufacturer’s instructions. Percentage of activity in mononuclear and polynuclear cells was calculated.

[5] = Apoe^−/− mice 12 weeks on Western Diet

| SUVmax ascending aorta [1, 5] | SUVmax ascending aorta ([1]; healthy C57Bl/6 control mice) | tissue uptake ([2]; atherosclerotic Apoe^−/− mice after PET/CT) [%ID/g] | tissue uptake ([2]; control C57Bl/6 mice after PET/CT) [%ID/g] | SUV at 1 h [3, 5] [SUV] | SUV at 1 h ([3]; healthy C57Bl/6 control mice) [SUV] | %fast ([4]; Apoe^-/- mice, N = 6) [%] | %slow ([4]; Apoe^-/- mice, N = 6) [%] | Weighed t1/2 (weighted blood half-life) ([4]; Apoe^-/- mice, N = 6) [min] | t1/2 fast ([4]; Apoe^-/- mice, N = 6) [min] | t1/2 slow ([4]; Apoe^-/- mice, N = 6) [min] | %fast ([4]; C57Bl/6 mice, N = 7) [%] | %slow ([4]; C57Bl/6 mice, N = 7) [%] | Weighed t1/2 (weighted blood half-life) ([4]; C57Bl/6 mice, N = 7) [min] | t1/2 fast ([4]; C57Bl/6 mice, N = 7) [min] | t1/2 slow ([4]; C57Bl/6 mice, N = 7) [min] | SMILES |
| --- | --- | --- | --- | --- | --- | --- | --- | --- | --- | --- | --- | --- | --- | --- | --- | --- |
| 1.2 | 1.7 |  |  |  |  |  |  |  |  |  |  |  |  |  |  | OC[C@H]1OC(O)[C@H]([18F])[C@@H](O)[C@@H]1O (stereo partly shown) [[^18F]F-FDG, [^18F]F-fluorodeoxyglucose] |
|  |  | 7.4 | 3.5 | 1.1 | 0.5 | 11.27 | 88.73 | 6.83 | 0.557 | 7.627 | 79.14 | 20.86 | 4.83 | 1.939 | 15.81 | C[C@@H](O)[C@H](NC(=O)[C@@H]1CSSC[C@H](NC(=O)[C@@H](Cc2ccccc2)NC(=O)CN2CCN(CC(=O)O)CCN(CC(=O)O)CCN(CC(=O)O)CC2)C(=O)N[C@@H](Cc2ccc(O)cc2)C(=O)N[C@H](Cc2c[nH]c3ccccc23)C(=O)N[C@@H](CCCCN)C(=O)N[C@@H]([C@@H](C)O)C(=O)N1)C(=O)O [[^64Cu]Cu-DOTATATE, metal not drawn] |
